Results as given in patent publication US11939301B2, “5HT1F receptor agonists and mitochondrial biogenesis” (MUSC FOUNDATION FOR RESEARCH DEVELOPMENT, priority 2016, dated 2024).

Legend:
[1] = test system: renal proximal tubule cells; assay: In-vitro mitochondrial biogenesis dose response (FCCP-uncoupled OCR, Seahorse); assay type: cell-based; conditions: Oryctolagus cuniculus; rabbit renal proximal tubule cells, 24 h incubation, uncoupled OCR normalized to vehicle, Hill fit, N=4-6
Experimental: OCRs were measured using a Seahorse Bioscience analyzer (North Billerica, Mass.) before (basal) and after addition of […] FCCP, an ionophore that uncouples electron transport from ATP generation. The selective 5-HT1F receptor agonists LY334370 (4-fluoro-N-[3-(1-methyl-4-piperidinyl)-1H-indol-5-yl]benzamide) and LY344864 (N-[(3R)-3-(dimethylamino)-2,3,4,9-tetrahydro-1H-carbazol-6-yl]-4-fluorobenzamide), and the nonselective 5-HT receptor agonist a-methyl 5-HT were purchased from Tocris (Ellisville, Mo.).
In-vitro mitochondrial biogenesis dose responses (reported as EC50 values) were determined from a modification of the assay described in Example 21. […] Compounds were incubated at different doses with renal cells for 24 h after which their basal respiration and elevated FCCP-induced uncoupled oxygen consumption rates (OCRs) were measured using a Seahorse Bioscience analyzer (Beeson et al., 2010). Uncoupled OCRs were normalized to vehicle control OCRs and the rates that decrease at high concentrations of drug were eliminated. The remaining dose-dependent responses were fit to a standard Hill equation using non-linear regression to obtain the EC50 values for replicates of N=4-6 where N is the number of individual rabbit renal cell isolations tested for each compound.

[2] = test system: RPTC; conditions: cited from earlier work; for maximal mitochondrial respiration / mitochondrial proteins (ATP synthase β, Cox1, NDUFB8): RPTC, 1-100 nM
[3] = test system: ischemia/reperfusion-induced AKI; conditions: following ischemia/reperfusion-induced AKI; cited from earlier work
[4] = test system: murine renal cortex, heart, and liver; conditions: cited from earlier work
[5] = test system: podocytes (1-1P4G5 podocyte clone); assay: Podocyte mitochondrial biogenesis (FCCP-uncoupled oxygen consumption rate); assay type: cell-based; conditions: Mus musculus; differentiated podocytes, FCCP 1 μM uncoupled rate normalized to vehicle, Hill fit
Experimental: Fully differentiated podocytes were assayed using increased mitochondrial reserve capacity (measured as FCCP-uncoupled oxygen consumption rate) as a measure of mitochondrial biogenesis.
For these studies the 1-1P4G5 podocyte clone developed in the Kopp lab at the NIH were used. (25) These cells expressed a SV40-driven temperature sensitive T antigen that enabled the cells to proliferate in an undifferentiated state at the permissive temperature of 33° C. and then after 5 days of culture at 37° C. the cells are fully differentiated as mature podocytes. The differentiated cells were maintained in Advanced RPMI 1640 with 10% fetal calf serum and then plated at 1.5 million cells/96-well Seahorse plate for 48 h prior to treatment with test compound, vehicle control (VC) or validated 5-HT1F agonists. The plates were then transferred to a Seahorse XF96 Instrument during which basal and FCCP-uncoupled rates were measured (the [FCCP]=1 μM). Drugs were treated at a range of 1 nM, 10 nM, 100 nM, 500 nM, and 1 μM and the uncoupled rates were normalized to vehicle control, <0.2% DMSO in media. The doses responses were fit to a Hill function and the EC50 values were calculated from the non-linear regression.

[6] = test system: murine model of glomerular disease; assay: Nephrotoxic serum (NTS) induced chronic kidney disease model, albuminuria; assay type: in vivo, mouse; conditions: C57/BL mice, 2 mg/kg once per day, FIG. 1
Description: Renal dysfunction was modeled in mice using the nephrotoxic serum (NTS) induced model. The classical Adriamycin model for glomerular studies relies critically on dosing profiles, has resistance in some murine species, off-target effects in others, and required days (10 days) instead of hours for observable albuminuria (marker for renal compromise, determined by urine collection) compared to the NTS counterpart. (Mallipattu, S. K.; He, J. C. Am. J. Physiol. Renal Physiol. 2016, 311, F46-F51; Pippin, J. W.; Brinkkoetter, P. T.; Cormack-Aboud, F. C.; Durvasula, R. V.; Hauser, P. V.; Kowalewska, J.; Krofft, R. D.; Logar, C. M.; Marshall, C. B.; Ohse, T.; Shankland, S. J. Am. J. Physiol. Renal Physiol. 2009, 296, F213-F229). Conversely, the NTS model is quick onset (4 h) and has wide species reproducibility.
In this experiment, induction of the nephrotoxic serum (NTS) model ([…] injection) for glomerular decline was performed using C57/BL mice (15 mice total).
Urine albumin/creatinine ratios were measured in control (NTS+vehicle) and drug treated mice (NTS+drug (example 6) for pre-injection, day 2, day 6, day 12 and day 14. Drug was administered once per day at 2 mg/kg. Thus, it is expected that the compounds of the invention are useful to treat chronic kidney disease.

Row | SMILES | EC50 [1] [nM] | EC50 [5] [nM] | other results
1 | CN1CCN(C(=O)c2cccc(NC(=O)c3ccccc3)n2)CC1 [Example 11, N-(6-(4-methylpiperazine-1-carbonyl)pyridin-2-yl)benzamide] | 2 | – | –
2 | COc1cc(CC(C)N)c(OC)cc1I.Cl (stereo not shown) [DOT, 1-(2,5-dimethoxy-4-iodophenyl)-2-aminopropane hydrochloride] | – | – | recovery of mitochondrial function ([2]; renal proximal tubular cells, following oxidant injury): accelerated the recovery of mitochondrial function; induction of MB ([2]; renal proximal tubular cells): potent inducer of MB
3 | COCC(=O)N1CCc2ccc(N(C)C(=O)c3c(F)cc(F)cc3F)cc21 [Example 16, 2,4,6-trifluoro-N-(1-(2-methoxyacetyl)indolin-6-yl)-N-methylbenzamide] | 0.002 | – | –
4 | COCC(=O)N1CCc2ccc(NC(=O)c3ccc(F)c(F)c3)cc21 [Example 15, 3,4-difluoro-N-(1-(2-methoxyacetyl)indolin-6-yl)benzamide] | 0.2 | – | –
5 | Cc1ccc(S(=O)(=O)Nc2cccc(C(=O)N3CCN(C)CC3)n2)cc1 [Example 8, 4-methyl-N-(6-(4-methylpiperazine-1-carbonyl)pyridin-2-yl)benzenesulfonamide] | 0.2 | – | –
6 | COCC(=O)N1CCc2ccc(Nc3nc4ccccc4o3)cc21 [Example 12, 1-(6-(benzo[d]oxazol-2-ylamino)indolin-1-yl)-2-methoxyethan-1-one] | 2 | – | –
7 | CN(C)[C@@H]1CCc2[nH]c3ccc(NC(=O)c4ccc(F)cc4)cc3c2C1 [LY344864, N-[(3R)-3-(dimethylamino)-2,3,4,9-tetrahydro-1H-carbazol-6-yl]-4-fluorobenzamide] | – | – | recovery of renal function (BUN, KIM-1, mtDNA copy number) [3]: accelerated recovery of renal function; maximal mitochondrial respiration [2]: increased; mitochondrial proteins (ATP synthase β, Cox1, NDUFB8) [2]: increased; PGC-1α, Cox1 and NDUFB8 transcript levels and mtDNA copy number [4]: increased
8 | COCCNC(=O)c1cnc2ccc(OC)cn2c1=O [Example 1, 7-methoxy-N-(2-methoxyethyl)-4-oxo-4H-pyrido[1,2-a]pyrimidine-3-carboxamide] | 0.02 | – | –
9 | COCC(=O)N1CCc2ccc(N(S(=O)(=O)c3ccccc3)S(=O)(=O)c3ccccc3)cc21 [Example 19, N-(1-(2-methoxyacetyl)indolin-6-yl)-N-(phenylsulfonyl)benzenesulfonamide] | 2 | 20 | –
10 | CN1CCN(C(=O)c2cccc(NC(=O)N(C)C)n2)CC1 [Example 9, 1,1-dimethyl-3-(6-(4-methylpiperazine-1-carbonyl)pyridin-2-yl)urea] | 0.2 | – | –
11 | COc1cc(OC)c2ncc(C(=O)N3CCN(C)CC3)c(O)c2c1 [Example 5, (4-hydroxy-6,8-dimethoxyquinolin-3-yl)(4-methylpiperazin-1-yl)methanone] | 1 | 100 | –
12 | COCC(=O)N1CCc2ccc(NC(=O)c3cc(F)cc(F)c3)cc21 [Example 17, 3,5-difluoro-N-(1-(2-methoxyacetyl)indolin-6-yl)benzamide] | 0.02 | – | –
13 | COCCNC(=O)c1cnc2c(OC)cc(OC)cc2c1O [Example 4, 4-hydroxy-6,8-dimethoxy-N-(2-methoxyethyl)quinoline-3-carboxamide] | 2 | 20 | –
14 | CN1CCCN(C(=O)c2cccc(NC(=O)c3c(F)cc(F)cc3F)n2)CC1 [Example 7, 2,4,6-trifluoro-N-(6-(4-methyl-1,4-diazepane-1-carbonyl)pyridin-2-yl)benzamide] | 0.2 | – | –
15 | CN1CCN(C(=O)c2cccc(Nc3nc4ccccc4[nH]3)n2)CC1 [Example 10, (6-((1H-benzo[d]imidazol-2-yl)amino)pyridin-2-yl)(4-methylpiperazin-1-yl)methanone] | 0.2 | – | –
16 | CN1CCC(c2c[nH]c3ccc(NC(=O)c4ccc(F)cc4)cc23)CC1 [LY334370, 4-fluoro-N-[3-(1-methyl-4-piperidinyl)-1H-indol-5-yl]benzamide] | – | – | maximal mitochondrial respiration [2]: increased; mitochondrial proteins (ATP synthase β, Cox1, NDUFB8) [2]: increased
17 | COCC(=O)N1CCc2ccc(NC(=O)c3ccc(F)cc3F)cc21 [Example 13, 2,4-difluoro-N-(1-(2-methoxyacetyl)indolin-6-yl)benzamide] | 0.02 | – | –
18 | CN1CCC(C(=O)c2cccc(NC(=O)c3c(F)cc(F)cc3F)n2)CC1 [Example 24, 2,4,6-trifluoro-N-(6-(1-methylpiperidine-4-carbonyl)pyridin-2-yl)benzamide, reference compound] | 0.6 | 20 | –
19 | COCC(=O)N1CCc2ccc(NC(=O)c3cccc(Br)c3)cc21 [Example 20, 3-bromo-N-(1-(2-methoxyacetyl)indolin-6-yl)benzamide] | 0.02 | – | –
20 | CN(C)CC(=O)N1CCc2ccc(NS(=O)(=O)c3ccccc3)cc21 [Example 25, N-(1-(dimethylglycyl)indolin-6-yl)benzenesulfonamide] | – | 0.2 | –
21 | COCC(=O)N1CCc2ccc(Nc3nc4ccccc4[nH]3)cc21 [Example 14, 1-(6-((1H-benzo[d]imidazol-2-yl)amino)indolin-1-yl)-2-methoxyethan-1-one] | 0.02 | – | –
22 | O=C(Nc1ccc2c(c1)N(C(=O)CN1CCOCC1)CC2)c1ccccc1 [Example 27, N-(1-(2-morpholinoacetyl)indolin-6-yl)benzamide] | – | 20 | –
23 | CCN(CC)CC(=O)N1CCc2ccc(NC(=O)c3ccccc3)cc21 [Example 26, N-(1-(diethylglycyl)indolin-6-yl)benzamide] | – | 20 | –
24 | COCCNC(=O)c1cnc(N)n(CCOC)c1=O [Example 3, 2-amino-N,1-bis(2-methoxyethyl)-6-oxo-1,6-dihydropyrimidine-5-carboxamide] | 20 | – | –
25 | CN1CCN(C(=O)c2cccc(NC(=O)c3c(F)cc(F)cc3F)n2)CC1 [Example 6, 2,4,6-trifluoro-N-(6-(4-methylpiperazine-1-carbonyl)pyridin-2-yl)benzamide] | 2 | 100 | albuminuria (urine albumin/creatinine ratio) [6]: attenuated albuminuria
26 | COCCNC(=O)c1cnc2ccc(NCCOC)cn2c1=O [Example 2, N-(2-methoxyethyl)-7-((2-methoxyethyl)amino)-4-oxo-4H-pyrido[1,2-a]pyrimidine-3-carboxamide] | 0.02 | – | –
